Results as given in patent US20210038587A1, “METHODS AND COMPOSITIONS FOR TREATING NON-ERK MAPK PATHWAY INHIBITOR-RESISTANT CANCERS” (BIOMED VALLEY DISCOVERIES, INC., priority 2013, published 2021).

Legend:
Assay in all cases: Reverse Phase Protein Analysis (RPPA)
Details in all cases: % change from DMSO (matched cell line)
A375 = assay type: cell-based, human
Method: (§1) Control wells were treated with DMSO at 0.1% (v/v) for 6 hours prior to cell lysate generation. Samples were then analyzed using reverse-phase protein microarray technology (Theranostics Health).
(§2) Cell lines with common alterations in BRAF and RAS were assayed: BRAF^V600E mutant lines A375, Colo205, and HT29; KRAS^G12C-mutant cell line MIAPACa-2; KRAS^G13D-mutant cell line HCT116; and AN3Ca with atypical HRAS^F82L mutation. Changes in protein levels are shown as a percentage change from dimethyl sulfoxide (DMSO)-treated parental control (FIG. 32A and Table 23).

HCT116 = assay type: cell-based, human
Method: as §1, §2

AN3Ca = assay type: cell-based
Method: as §1, §2

HT29 = assay type: cell-based
Method: as §1, §2

CC(C)Nc1cc(-c2c[nH]c(C(=O)N[C@H](CO)c3cccc(Cl)c3)c2)c(Cl)cn1 [BVD-523]
Avg (4ebp1 T70) (A375): −31.82%
Avg (Akt S473) (A375): 73.07%
Avg (Akt) (A375): −14.03%
Avg (Bad S136) (A375): 12.31%
Avg (Bad S155) (A375): −21.9%
Avg (Bak) (A375): −3.26%
Avg (Bax) (A375): −6.98%
Avg (Bcl 2) (A375): −12.55%
Avg (Bcl2 S70) (A375): −7.91%
Avg (Bcl 2 T56) (A375): −8.54%
Avg (Bim) (A375): 14.57%
Avg (CREB S133) (A375): −12.65%
Avg (Caspase 3 CL D175) (A375): −8.06%
Avg (Caspase 7 Cl D198) (A375): 3.18%
Avg (Chk1) (A375): 16.94%
Avg (Chk1 S345) (A375): −7.43%
Avg (Cyclin D1) (A375): −81.45%
Avg (ERK 1 2) (A375): −22.91%
Avg (ERK 1 2 T202 Y204) (A375): 43.34%
Avg (MAK1 S360) (A375): 3.35%
Avg (Mcl1) (A375): 10.67%
Avg (Raptor S792) (A375): −10.33%
Avg (Raptor) (A375): −7.77%
Avg (Rictor) (A375): −20.11%
Avg (Stat1) (A375): 1.32%
Avg (Stat3) (A375): 6.02%
Avg (bad S112) (A375): −72.37%
Avg (c Fos) (A375): 4.39%
Avg (c Myc) (A375): 2.56%
Avg (mTOR S2448) (A375): −27.87%
Avg (mTOR S2481) (A375): −3.36%
Avg (mTOR) (A375): 0.2%
Avg (p70 S6 Kinase) (A375): −7.6%
Avg (p90 RSK S380) (A375): −71%
Avg(S6 Ribo Prot S235 236) (A375): −95.3%
Avg(S6 Ribo Prot S240 244) (A375): −91.98%
Avg(Tuberin TSC2 Y1571) (A375): −6.32%
Avg(p70 S6 Kinase S371 S394) (A375): −8.58%
Avg(p70 S6 Kinase T389 T412) (A375): −23.79%
Avg (4ebp1 T70) (HCT116): 4.03%
Avg (Akt S473) (HCT116): −6.14%
Avg (Akt) (HCT116): 4.41%
Avg (Bad S136) (HCT116): −11.49%
Avg (Bad S155) (HCT116): −30.72%
Avg (Bak) (HCT116): −13.16%
Avg (Bax) (HCT116): −0.8%
Avg (Bcl 2) (HCT116): −3.59%
Avg (Bcl2 S70) (HCT116): −8.23%
Avg (Bcl 2 T56) (HCT116): −8.36%
Avg (Bim) (HCT116): 12.44%
Avg (CREB S133) (HCT116): −30.64%
Avg (Caspase 3 CL D175) (HCT116): −10.11%
Avg (Caspase 7 Cl D198) (HCT116): −21.09%
Avg (Chk1) (HCT116): −11.26%
Avg (Chk1 S345) (HCT116): −39.65%
Avg (Cyclin D1) (HCT116): −69.62%
Avg (ERK 1 2) (HCT116): −29.42%
Avg (ERK 1 2 T202 Y204) (HCT116): 849.12%
Avg (MAK1 S360) (HCT116): −13.45%
Avg (Mcl1) (HCT116): −8.72%
Avg (Raptor S792) (HCT116): −22.04%
Avg (Raptor) (HCT116): −7.06%
Avg (Rictor) (HCT116): −13.05%
Avg (Stat1) (HCT116): −13.76%
Avg (Stat3) (HCT116): −5.52%
Avg (bad S112) (HCT116): −34.27%
Avg (c Fos) (HCT116): −14.08%
Avg (c Myc) (HCT116): −11.15%
Avg (mTOR S2448) (HCT116): −12.78%
Avg (mTOR S2481) (HCT116): −34.09%
Avg (mTOR) (HCT116): −11.96%
Avg (p70 S6 Kinase) (HCT116): −12.86%
Avg (p90 RSK S380) (HCT116): −31.81%
Avg(S6 Ribo Prot S235 236) (HCT116): −96.31%
Avg(S6 Ribo Prot S240 244) (HCT116): −96.26%
Avg(Tuberin TSC2 Y1571) (HCT116): −29.89%
Avg(p70 S6 Kinase S371 S394) (HCT116): −16.9%
Avg(p70 S6 Kinase T389 T412) (HCT116): −28.11%
Avg (4ebp1 T70) (AN3Ca): 32.17%
Avg (Akt S473) (AN3Ca): 52.11%
Avg (Akt) (AN3Ca): −22.43%
Avg (Bad S136) (AN3Ca): −1.02%
Avg (Bad S155) (AN3Ca): 0.66%
Avg (Bak) (AN3Ca): 3.38%
Avg (Bax) (AN3Ca): −10.47%
Avg (Bcl 2) (AN3Ca): −16.83%
Avg (Bcl2 S70) (AN3Ca): −14.81%
Avg (Bcl 2 T56) (AN3Ca): −12.85%
Avg (Bim) (AN3Ca): −12.57%
Avg (CREB S133) (AN3Ca): 1.03%
Avg (Caspase 3 CL D175) (AN3Ca): −10.8%
Avg (Caspase 7 Cl D198) (AN3Ca): −12.35%
Avg (Chk1) (AN3Ca): −8.45%
Avg (Chk1 S345) (AN3Ca): −13.34%
Avg (Cyclin D1) (AN3Ca): −0.69%
Avg (ERK 1 2) (AN3Ca): −9.05%
Avg (ERK 1 2 T202 Y204) (AN3Ca): 733.27%
Avg (MAK1 S360) (AN3Ca): 0.49%
Avg (Mcl1) (AN3Ca): −4.9%
Avg (Raptor S792) (AN3Ca): −8.47%
Avg (Raptor) (AN3Ca): −13.82%
Avg (Rictor) (AN3Ca): −4.52%
Avg (Stat1) (AN3Ca): −5.65%
Avg (Stat3) (AN3Ca): −4.97%
Avg (bad S112) (AN3Ca): −54.1%
Avg (c Fos) (AN3Ca): −5.15%
Avg (c Myc) (AN3Ca): −0.58%
Avg (mTOR S2448) (AN3Ca): −10.79%
Avg (mTOR S2481) (AN3Ca): 2.75%
Avg (mTOR) (AN3Ca): 5.58%
Avg (p70 S6 Kinase) (AN3Ca): −10.27%
Avg (p90 RSK S380) (AN3Ca): −28.11%
Avg(S6 Ribo Prot S235 236) (AN3Ca): −43.41%
Avg(S6 Ribo Prot S240 244) (AN3Ca): −22.2%
Avg(Tuberin TSC2 Y1571) (AN3Ca): 2.86%
Avg(p70 S6 Kinase S371 S394) (AN3Ca): 32.26%
Avg(p70 S6 Kinase T389 T412) (AN3Ca): −14.78%
Avg (4ebp1 T70) (HT29): −41.47%
Avg (Akt S473) (HT29): −3.06%
Avg (Akt) (HT29): −13.41%
Avg (Bad S136) (HT29): 10.73%
Avg (Bad S155) (HT29): −25.9%
Avg (Bak) (HT29): −1.42%
Avg (Bax) (HT29): 8.39%
Avg (Bcl 2) (HT29): 10.68%
Avg (Bcl2 S70) (HT29): 2.83%
Avg (Bcl 2 T56) (HT29): −8.18%
Avg (Bim) (HT29): 2.81%
Avg (CREB S133) (HT29): −3.46%
Avg (Caspase 3 CL D175) (HT29): −7.03%
Avg (Caspase 7 Cl D198) (HT29): −6.93%
Avg (Chk1) (HT29): 7.4%
Avg (Chk1 S345) (HT29): −13.48%
Avg (Cyclin D1) (HT29): −37.21%
Avg (ERK 1 2) (HT29): −44.3%
Avg (ERK 1 2 T202 Y204) (HT29): 54.82%
Avg (MAK1 S360) (HT29): 1.49%
Avg (Mcl1) (HT29): −2.83%
Avg (Raptor S792) (HT29): −10.48%
Avg (Raptor) (HT29): −8.53%
Avg (Rictor) (HT29): −18.76%
Avg (Stat1) (HT29): 4.74%
Avg (Stat3) (HT29): −6.46%
Avg (bad S112) (HT29): −20.66%
Avg (c Fos) (HT29): −13.48%
Avg (c Myc) (HT29): 17.85%
Avg (mTOR S2448) (HT29): −20.68%
Avg (mTOR S2481) (HT29): −8.64%
Avg (mTOR) (HT29): 5.02%
Avg (p70 S6 Kinase) (HT29): −10.64%
Avg (p90 RSK S380) (HT29): −60.5%
Avg(S6 Ribo Prot S235 236) (HT29): −44.68%
Avg(S6 Ribo Prot S240 244) (HT29): −25.67%
Avg(Tuberin TSC2 Y1571) (HT29): 0.66%
Avg(p70 S6 Kinase S371 S394) (HT29): −35.94%
Avg(p70 S6 Kinase T389 T412) (HT29): −24.58%
